Experimental data: patent US9567301B2, “Pyrrol-1-yl benzoic acid derivatives useful as myc inhibitors” (Whitehead Institute for Biomedical Research, priority 2012, dated 2017)
Read-outs that look alike come from different tables or passages of the source.

Experiments:
Jurkat cells = test: Cell viability assay (ATPlite), Jurkat; type: cell-based, human; conditions: Homo sapiens, Jurkat; class symbols; NA: not active under assay conditions
Experimental: (§1) This assay was used for the H2171 and MM1S cell data shown in Table 2, and for the Jurkat (an immortalized line of human T lymphocyte cells), Ly1 (OCI-Ly1 human non-Hodgkin lymphoma cell line), Ly4 (OCI-Ly4 human non-Hodgkin lymphoma cell line), H2172 (NCI-H2172 human non-small cell lung cancer cell line), and CA-46 (a human Burkitt's lymphoma cell line) cell data shown in Table 3 and FIG. 12. Cells were counted and adjusted to 60,000 cells/mL. Using a Biotek EL406, 50 μL of cells are media were distributed into 384 well white plates from Thermo. Immediately after plating, compound in DMSO was distributed to plates. For large plate sets, cells were returned to 37° C. incubator while not in use.
(§2) Compounds were added to plates using a 100 nL 384 well pin transfer manifold on a Janus workstation. Stocks were arrayed in 10 point quadruplicate dose response in DMSO stock in 384 well Greiner compound plates. After addition of compound, plates were incubated for three days in a 37° C. incubator.
(§3) Cell viability was read out using ATPlite from Perkin Elmer. Plates were removed from the incubator and brought to room temperature prior to use. Lyophilized powder was resuspended in lysis buffer and diluted 1:2 with DI water. 25 μL of this solution was added to each well using the Biotek liquid handler. Plates were sealed with adherent aluminum seals prior to vortexing and spinning down at 1000 g for 1 minute. Plates were incubated for 15 minutes at room temperature before signal was read on an Envision Plate Reader.

c-Myc/Max/Ebox DNA = c-Myc/Max/Ebox DNA (Homo sapiens, UniProt P01106); test: c-Myc/Max/Ebox DNA AlphaScreen assay; type: binding; parameters: An exemplary assay uses full-length human c-Myc and Max proteins; his6 (cleaved yes); made in house
Experimental: This protocol was used to generate the biochemical data in Table 2 and FIG. 11. The primary AlphaScreen assay is amenable to 384-well and 1536-well plate formats for HTS. Human his6-c-Myc and his6-Max were used with biotinylated DNA containing a single Ebox sequence (biotin[…]) purchased from MWG Operon. Free c-Myc was generated from his6-c-Myc through thrombin cleavage of the his6 tag. For 384-well plate assays, 10 μL of a 2× solution of free c-Myc (25 nM final), Ni++-coated Acceptor Bead (25 μg/ml final), and biotinylated Ebox oligo (10 nM final) were added to 384-well plates with a Biotek EL406 liquid handler. 100 nL of compounds from stock plates were added by pin transfer using a Janus Workstation (PerkinElmer), allowing the compounds to interact with c-Myc prior to c-Myc binding with Max. In the current assay, DMSO was not allowed to exceed 2% v/v of the assay. 10 μl of 2× master mix containing streptavidin-coated donor beads (25 μg/ml final) and his6-Max (1.25 nM final) were added. AlphaScreen measurements were performed on an Envision 2104 (PerkinElmer) utilizing the manufacturer's protocol. The assay can also be performed in 1536-plate format with 8 μL total volume using two 4 μL additions (instead of […] and 10 μL respectively).
Assays are performed with minor modifications from the manufacturer's protocol (PerkinElmer). Both master mixes were made in room temperature assay buffer (50 mM HEPES, 150 mM NaCl, 0.2% w/v BSA, 0.02% w/v Tween20, 40 μg/ml glycogen, 500 μM DTT, pH 8.0, DTT and glycogen added fresh). Alpha beads were added to respective master solutions and wrapped in foil. All subsequent steps were performed in low light conditions. Solution 1: 2× solution of components with final concentrations of cMyc (25 nM), Ni-coated Acceptor Bead (25 μg/ml), and biotinylated Ebox oligo (10 nM). Solution 2: 2× solution of streptavidin-coated donor beads (25 μg/ml final) and his6-Max (1.25 nM final). […] Solution 1 were added to 384-well plate (AlphaPlate-384, PerkinElmer) with Biotek EL406 liquid handler and the plates were centrifuged at 1000 rpm for 1 minute. 100 nL of compounds from stock plates were added by pin transfer using a Janus Workstation. 10 μL Solution 2 were added with the liquid handler. Plates were sealed with foil to block light exposure and prevent evaporation. Plates were centrifuged at 1000 rpm for 1 minute followed by 2 hour incubation. AlphaScreen measurements were performed on an Envision 2104 utilizing the manufacturer's protocol. Excitation was at 680 nm for donor bead release of singlet oxygen and emission was read with a bandpass filter from 520-620 nm. Glycogen: Roche Diagnostics #10901393001. Plate 1536: Perkin Elmer, 6004350. Plate 384: Perkin Elmer, 6005350. Nickel-His Alpha Beads: 6760619R.

H2171 cells = test: Cell viability assay (ATPlite), H2171; type: cell-based, human; conditions: cell viability, three days, ATPlite, NA: inactive under assay conditions
Experimental: as §1, §2, §3

MM1S cells = test: Cell viability assay (ATPlite), MM1S; type: cell-based, human; conditions: cell viability, three days, ATPlite, NA: inactive under assay conditions
Experimental: as §1, §2, §3

[1] = class symbols, NA: not active under assay conditions, read-out: Myc/Max IC50
[2] = c-Myc/Max/Ebox DNA AlphaScreen, NA: inactive under assay conditions, read-out: Biochemical IC50

c-Myc/Max/Ebox DNA, sequence (P01106 16-454): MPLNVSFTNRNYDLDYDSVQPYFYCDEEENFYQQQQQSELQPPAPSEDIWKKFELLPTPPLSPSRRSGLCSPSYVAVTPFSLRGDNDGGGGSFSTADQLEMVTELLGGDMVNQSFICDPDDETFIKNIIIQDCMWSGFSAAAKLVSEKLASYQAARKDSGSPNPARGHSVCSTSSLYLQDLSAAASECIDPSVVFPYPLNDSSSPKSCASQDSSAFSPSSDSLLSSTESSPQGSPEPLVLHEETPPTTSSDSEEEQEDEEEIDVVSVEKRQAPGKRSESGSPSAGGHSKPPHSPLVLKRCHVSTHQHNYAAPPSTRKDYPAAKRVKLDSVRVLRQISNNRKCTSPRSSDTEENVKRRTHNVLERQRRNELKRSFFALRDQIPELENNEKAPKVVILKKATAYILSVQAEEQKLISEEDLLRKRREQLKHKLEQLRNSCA

| Compound | EC50 (Jurkat cells) [µM] | IC50 (c-Myc/Max/Ebox DNA; [1]) [µM] | EC50 (H2171 cells; Homo sapiens, NCI-H2171, 72 h) [µM] | EC50 (MM1S cells; Homo sapiens, MM1.S, 72 h) [µM] | IC50 (c-Myc/Max/Ebox DNA; [2]) [µM] | EC50 (H2171 cells) [µM] | EC50 (MM1S cells) [µM] |
| --- | --- | --- | --- | --- | --- | --- | --- |
| Cc1ccc(C)n1-c1cc(C(=O)N2CCCC(c3ccc(C(=O)O)cc3)C2)ccc1C(=O)O (stereo not shown) [Compound 164] | ≥ 100 | 1 to 10 | – | – | – | – | – |
| COc1ccc(C(=O)N2CCN(C(=O)c3ccc(C(=O)O)c(-n4c(C)ccc4C)c3)CC2)cc1 [Compound 218] | 10 to 100 | 10 to 100 | – | – | – | – | – |
| Cc1cnc(C(=O)N2CCN(C(=O)c3ccc(C(=O)O)c(-n4c(C)ccc4C)c3)CC2)cn1 [Compound 215] | ≥ 100 | 10 to 100 | – | – | – | – | – |
| Cc1ccc(C)n1-c1cc(C(=O)N2CCCC(c3cccc(C(=O)O)c3)C2)ccc1C(=O)O (stereo not shown) [Compound 169] | ≥ 100 | 1 to 10 | – | – | – | – | – |
| Cc1ccccc1N1CCN(C(=O)c2ccc(C(=O)O)c(-n3c(C)ccc3C)c2)CC1 [Compound 179] | ≥ 100 | 10 to 100 | – | – | – | – | – |
| Cc1ccc(C)n1-c1cc(C(=O)N2CCN(C(=O)c3cccnc3)CC2)ccc1C(=O)O [Compound 216] | ≥ 100 | 10 to 100 | – | – | – | – | – |
| Cc1ccc(C)n1-c1cc(C(=O)N2CCCC(c3ccc(Cl)cc3)C2)ccc1C(=O)O (stereo not shown) [Compound 201] | 10 to 100 | 10 to 100 | – | – | – | – | – |
| Cc1cccc(C2CCCN(C(=O)c3ccc(C(=O)O)c(-n4c(C)ccc4C)c3)C2)c1 (stereo not shown) [Compound 212] | 10 to 100 | 10 to 100 | – | – | – | – | – |
| Cc1ccc(C)n1-c1cc(CNCc2cccc(C(=O)O)c2)ccc1C(=O)O [Compound 196] | ≥ 100 | 1 to 10 | – | – | – | – | – |
| Cc1ccc(C)n1-c1cc(C(=O)N2CCN(c3cccc(O)c3)CC2)ccc1C(=O)O [Compound 182] | ≥ 100 | 1 to 10 | – | – | – | – | – |
| Cc1ccc(C)n1-c1cc(Br)ccc1C(=O)NS(C)(=O)=O [Compound 214] | 10 to 100 | ≥ 100 | – | – | – | – | – |
| Cc1ccc(C)n1-c1cc(C(=O)N2CCN(c3ccc(C(=O)O)cc3)CC2)ccc1C(=O)O [Compound 199] | 10 to 100 | 1 to 10 | – | – | – | – | – |
| Cc1ccc(C)n1-c1cc(C(=O)N2CCCC(c3ccc(CC(=O)O)cc3)C2)ccc1C(=O)O (stereo not shown) [Compound 208] | 10 to 100 | 1 to 10 | – | – | – | – | – |
| Cc1ccc(C)n1-c1cc(C(=O)O)ccc1C(=O)NS(C)(=O)=O [Compound 223] | ≥ 100 | 10 to 100 | – | – | – | – | – |
| COC(=O)c1ccccc1-n1c(C)ccc1C [Compound 14] | – | – | 86.3 | 223 | 97.3 | – | – |
| COc1cc(C(=O)OCOC(C)=O)c(-n2c(C)ccc2C)cc1OC [Compound 160] | – | – | 104 | 211 | 94.6 | – | – |
| Cc1ccc(C)n1-c1cc(C(=O)N/N=C/c2ccc(F)c(F)c2)ccc1C(=O)O [Compound 99] | – | – | 106 | 492 | 4.82 | – | – |
| Cc1ccc(C)n1-c1cc(C(=O)N2C[C@H](c3ccccc3)[C@@H](O)C2)ccc1C(=O)O [Compound 217] | ≥ 100 | 10 to 100 | – | – | – | – | – |
| COC(=O)c1ccc(C(=O)NN)cc1-n1c(C)ccc1C [Compound 211] | ≥ 100 | ≥ 100 | – | – | – | – | – |
| Cc1ccc(C)n1-c1cc(C(=O)NCCc2c[nH]cn2)ccc1C(=O)O [Compound 72] | – | – | 198 | 2760 | 15.4 | – | – |
| Cc1ccccc1C1CCCN(C(=O)c2ccc(C(=O)O)c(-n3c(C)ccc3C)c2)C1 (stereo not shown) [Compound 200] | 10 to 100 | ≥ 100 | – | – | – | – | – |
| Cc1ccc(C)n1-c1ccc(C(=O)O)c(O)c1 [Compound 65] | – | – | – | – | 61.9 | 189 | 1440 |

| Compound | EC50 (Jurkat cells) [µM] | IC50 (c-Myc/Max/Ebox DNA; [1]) [µM] | EC50 (H2171 cells; Homo sapiens, NCI-H2171, 72 h) [µM] | EC50 (MM1S cells; Homo sapiens, MM1.S, 72 h) [µM] | IC50 (c-Myc/Max/Ebox DNA; [2]) [µM] | EC50 (H2171 cells) [µM] | EC50 (MM1S cells) [µM] |
| --- | --- | --- | --- | --- | --- | --- | --- |
| CCCOC(=O)c1ccc(-n2c(CCC(=O)O)ccc2-c2ccccc2)cc1O [Compound 21] | – | – | 89.1 | 75.3 | 96 | – | – |
| Cc1ccc(-c2ccc(-n3c(C)ccc3C)c(C(=O)O)c2)cc1 [Compound 148] | – | – | 268 | 1690 | 941 | – | – |
| Cc1c(C)c(C)n(-c2ccc(C(=O)O)c(O)c2)c1C [Compound 139] | – | – | 564 | 329 | 96.4 | – | – |
| Cc1ccc(C)n1-c1cc(C(=O)N/N=C/c2cc(C(F)(F)F)cc(C(F)(F)F)c2)ccc1C(=O)O [Compound 98] | – | – | 24100 | 5170 | 3.84 | – | – |
| CCOC(=O)c1ccc(-n2c(CCC(=O)O)ccc2-c2cccs2)cc1O [Compound 22] | – | – | 73.4 | 71.7 | 124 | – | – |
| Cc1ccc(C)n1-c1cc(C(=O)NCCN2CCN(C)CC2)ccc1C(=O)O [Compound 74] | – | – | 120 | 27600 | 104 | – | – |
| Cc1cc(Br)c(-n2c(C)ccc2C)c(C(=O)O)c1 [Compound 130] | – | – | 224 | 300 | 51.5 | – | – |
| Cc1nccn1-c1ccccc1C(=O)O [Compound 26] | – | – | 6.27 | 11.5 | 442 | – | – |
| CC(=O)OCOC(=O)c1ccccc1-n1c(C)ccc1C [Compound 149] | – | – | – | – | 101 | 20.7 | 71.4 |
| CCOC(=O)c1ccc(-n2c(CCC(=O)O)ccc2-c2ccc(OC)cc2)cc1O [Compound 24] | – | – | 166 | 83.2 | 116 | – | – |
| CCOC(=O)c1ccc(-n2c(CCC(=O)O)ccc2-c2ccc(Br)cc2)cc1O [Compound 23] | – | – | 64.9 | 58 | 81.6 | – | – |
| Cc1ccc(C)n1-c1ccc(C(=O)O)c(O)c1 [Compound 127] | – | – | – | – | 53.3 | 517 | 517 |
| COc1cc(C(=O)O)c(-n2c(C)ccc2C)cc1OC [Compound 145] | – | – | 83.8 | 161 | 13.5 | – | – |
| Cc1ccc(C)n1-c1ccc(C(=O)O)c(Cl)c1 [Compound 6] | – | – | 76.3 | 208 | 81.5 | – | – |
| Cc1ccc(C)n1-c1cc2ccccc2cc1C(=O)O [Compound 129] | – | – | 151 | 264 | 31 | – | – |
| Cc1ccc(C)n1-c1cc(C(=O)N/N=C/c2ccccc2)ccc1C(=O)O [Compound 71] | – | – | 48.4 | 261 | 103 | – | – |
| CC(=O)OCOC(=O)c1ccccc1-n1cccc1 [Compound 150] | – | – | 28 | 99.1 | 150 | – | – |
| Cc1ccc(C)n1-c1ccccc1CC(=O)O [Compound 68] | – | – | 52.9 | 340 | 195 | – | – |
| O=C(O)c1ccc(-n2cccc2)cc1O [Compound 16] | – | – | 104 | 130 | 165 | – | – |
| Cc1ccc(C)n1-c1cc(C(=O)N/N=C/c2ccc3c(c2)OCCN3C)ccc1C(=O)O [Compound 89] | – | – | 198 | 92.4 | 38 | – | – |
| CC(=O)OCOC(=O)c1ccc(Cl)cc1-n1c(C)ccc1C [Compound 158] | – | – | 70.3 | 238 | 206 | – | – |
